In patent US7642251B2, “Compounds for the treatment of hepatitis C” (Bristol-Myers Squibb Company, priority 2007, dated 2010):
Where two headings read alike, the source gives them in different places.

What was measured:
[1] = system: HCV replicon cells; assay: HCV replicon FRET assay; format: cell-based; conditions: Hepatitis C virus
Excerpt: FRET Assay Preparation. To perform the HCV FRET screening assay, 96-well cell culture plates were used. The FRET peptide (Anaspec, Inc.) (Taliani et al., Anal. Biochem. 1996, 240, 60-67) contains a fluorescence donor, EDANS, near one end of the peptide and an acceptor, DABCYL, near the other end. The fluorescence of the peptide is quenched by […] resonance energy transfer (RET) between the donor and the acceptor, but as the NS3 protease cleaves the peptide the products are released from RET quenching and the fluorescence of the donor becomes apparent. The assay reagent was made as follows: 5× cell Luciferase cell culture lysis reagent from Promega (#E153A) diluted to 1× with dH2O, NaCl added to 150 mM final, the FRET peptide diluted to 20 μM final from a 2 mM stock.
To prepare plates, HCV replicon cells, with or without a Renilla luciferase reporter gene, were trypsinized and placed into each well of a 96-well plate with titrated test compounds added in columns 3 through 12; columns 1 and 2 contained a control compound (HCV protease inhibitor), and the bottom row contained cells without compound. The plates were then placed in a CO2 incubator at 37° C.
Assays. Subsequent to addition of the test compounds described above (FRET Assay Preparation), at various times the plate was removed and Alamar blue solution (Trek Diagnostics, #00-100) was added per well as a measure of cellular toxicity. After reading in a Cytoflour 4000 instrument (PE Biosystems), plates were rinsed with PBS and then used for FRET assay by the addition of 30 ul of the FRET peptide assay reagent described above (FRET Assay Preparation) per well. The plate was then placed into the Cytoflour 4000 instrument which had been set to 340 excite/490 emission, automatic mode for 20 cycles and the plate read in a kinetic mode. Typically, the signal to noise using an endpoint analysis after the reads was at least three-fold. Alternatively, after Alamar blue reading, plates were rinsed with PBS, 50 ul of DMEM (high glucose) without phenol red was added and plates were then used for luciferase assay using the Promega Dual-Glo Luciferase Assay System.
Compound analysis was determined by quantification of the relative HCV replicon inhibition and the relative cytotoxicity values. To calculate cytoxicity values, the average Alamar Blue fluorescence signals from the control wells were set as 100% non-toxic. The individual signals in each of the compound test wells were then divided by the average control signal and multiplied by 100% to determine […]. To calculate the HCV replicon inhibition values, an average background value was obtained from the two wells containing the highest amount of HCV protease inhibitor at the end of the assay period. These numbers were similar to those obtained from naïve Huh-7 cells.
The background numbers were then subtracted from the average signal obtained from the control wells and this number was used as 100% activity. The individual signals in each of the compound test wells were then divided by the averaged control values after background subtraction and multiplied by 100% to determine percent activity. EC50 values for a protease inhibitor titration were calculated as the concentration which caused a 50% reduction in FRET or luciferase activity. The two numbers generated for the compound plate, percent cytoxicity and percent activity were used to determine compounds of interest for further analysis.

[2] = target: T1, HCV NS5B (Hepatitis C virus genotype 1b, UniProt Q9WMX2); assay: Modified HCV NS5B RdRp enzyme assay (preincubation protocol); format: biochemical
T1 construct: The cDNA encoding the NS5B protein of HCV, genotype 1b; made in house; host or cells: E. coli BL21(DE3)
Protocol: HCV NS5B RdRp cloning, expression, and purification. The cDNA encoding the NS5B protein of HCV, genotype 1b, was cloned into the pET21a expression vector. The protein was expressed with an 18 amino acid C-terminal truncation to enhance the solubility. The E. coli competent cell line BL21(DE3) was used for expression of the protein. Cultures were grown at 37° C. for ˜4 hours until the cultures reached an optical density of 2.0 at 600 nm. The cultures were cooled to 20° C. and induced with 1 mM IPTG. Fresh ampicillin was added to a final concentration of 50 μg/ml and the cells were grown overnight at 20° C.
Cell pellets (3 L) were lysed for purification to yield 15-24 mgs of purified NS5B. The lysis buffer consisted of 20 mM Tris-HCl, pH 7.4, 500 mM NaCl, 0.5% triton X-100, 1 mM DTT, 1 mM EDTA, 20% glycerol, 0.5 mg/ml lysozyme, 10 mM MgCl2, 15 ug/ml deoxyribonuclease I, and Complete™ protease inhibitor tablets (Roche). After addition of the lysis buffer, frozen cell pellets were resuspended using a tissue homogenizer. To reduce the viscosity of the sample, aliquots of the lysate were sonicated on ice using a microtip attached to a Branson sonicator. The sonicated lysate was centrifuged at 100,000×g for 1 hr at 4° C. and filtered through a 0.2 μm filter unit (Corning).
The protein was purified using three sequential chromatography steps: Heparin sepharose CL-6B, polyU sepharose 4B, and Hitrap SP sepharose (Pharmacia). The chromatography buffers were identical to the lysis buffer but contained no lysozyme, deoxyribonuclease I, MgCl2 or protease inhibitor and the NaCl concentration of the buffer was adjusted according to the requirements for charging the protein onto the column. Each column was eluted with a NaCl gradient which varied in length from 5-50 column volumes depending on the column type. After the final chromatography step, the resulting purity of the enzyme is >90% based on SDS-PAGE analysis. The enzyme was aliquoted and stored at −80° C.
Standard HCV NS5B RdRp enzyme assay. HCV RdRp genotype 1b assays were run in a final volume of 60 μl in 96 well plates (Costar 3912). The assay buffer is composed of 20 mM Hepes, pH 7.5, 2.5 mM KCl, 2.5 mM MgCl2, 1 mM DTT, 1.6 U RNAse inhibitor (Promega N2515), 0.1 mg/ml BSA (Promega R3961), and 2% glycerol. All compounds were serially diluted (3-fold) in DMSO and diluted further in water such that the final concentration of DMSO in the assay was 2%. HCV RdRp genotype 1b enzyme was used at a final concentration of 28 nM. A polyA template was used at 6 nM, and a biotinylated oligo-dT12 primer was used at 180 nM final concentration. Template was obtained commercially (Amersham 27-4110). Biotinylated primer was prepared by Sigma Genosys. 3H-UTP was used at 0.6 μCi (0.29 μM total UTP). Reactions were initiated by the addition of enzyme, incubated at 30° C. for 60 min, and stopped by adding 25 μl of 50 mM EDTA containing SPA beads (4 μg/μl, Amersham RPNQ 0007). Plates were read on a Packard Top Count NXT after >1 hr incubation at room temperature.
Modified HCV NS5B RdRp enzyme assay. A modified enzyme assay was performed essentially as described for the standard enzyme assay except for the following: The biotinylated oligo dT12 primer was precaptured on streptavidin-coated SPA beads by mixing primer and beads in assay buffer and incubating at room temperature for one hour. Unbound primer was removed after centrifugation. The primer-bound beads were resuspended in 20 mM Hepes buffer, pH 7.5 and used in the assay at final concentrations of 20 nM primer and 0.67 μg/μl beads. Order of addition in the assay: enzyme (14 nM) was added to diluted compound followed by the addition of a mixture of template (0.2 nM), 3H-UTP (0.6 μCi, 0.29 μM), and primer-bound beads, to initiate the reaction; concentrations given are final. Reactions were allowed to proceed for 4 hours at 30° C.
IC50 values for compounds were determined using seven different [I]. […]

[3] = preincubation protocol, read-out: IC50

T1 sequence (Q9WMX2 2420-2992): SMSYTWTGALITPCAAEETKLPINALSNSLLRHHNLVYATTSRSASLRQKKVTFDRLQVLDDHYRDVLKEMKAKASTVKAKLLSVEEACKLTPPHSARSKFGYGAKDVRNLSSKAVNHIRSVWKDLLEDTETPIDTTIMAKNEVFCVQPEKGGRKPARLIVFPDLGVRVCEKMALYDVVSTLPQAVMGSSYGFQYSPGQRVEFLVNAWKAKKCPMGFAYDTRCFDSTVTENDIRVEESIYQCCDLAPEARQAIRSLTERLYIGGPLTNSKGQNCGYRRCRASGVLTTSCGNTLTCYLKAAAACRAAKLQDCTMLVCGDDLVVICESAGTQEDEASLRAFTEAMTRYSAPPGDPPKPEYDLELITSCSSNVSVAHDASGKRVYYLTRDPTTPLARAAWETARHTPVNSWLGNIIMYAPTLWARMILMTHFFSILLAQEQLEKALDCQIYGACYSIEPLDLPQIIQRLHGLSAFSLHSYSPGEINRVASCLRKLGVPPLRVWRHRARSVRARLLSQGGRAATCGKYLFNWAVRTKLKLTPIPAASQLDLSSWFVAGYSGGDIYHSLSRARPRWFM

Structure (SMILES)	EC50 ([1]; FRET assay, read-out: EC50) [µM]	IC50 [2, 3] [µM]	EC50 [1] [µM]	IC50 [2] [µM]
COc1ccc2c(c1)C=C(c1ncccc1N(C)C)Cn1c-2c(C2CCCCC2)c2ccc(C(=O)O)cc21	0.00458 to 0.5	0.00458 to 0.5	–	–
COc1ccc2c(c1)C=C(c1cc(C(=O)N3CCOCC3)ccn1)Cn1c-2c(C2CCCCC2)c2ccc(C(=O)O)cc21	> 0.5	> 0.5	–	–
COc1ccc2c(c1)C=C(c1ncccc1S(=O)(=O)N1CCOCC1)Cn1c-2c(C2CCCCC2)c2ccc(C(=O)O)cc21	0.00458 to 0.5	0.00458 to 0.5	–	–
COc1ccc2c(c1)C=C(c1ncccc1S(=O)(=O)N1C3CCC1CN(C)C3)Cn1c-2c(C2CCCCC2)c2ccc(C(=O)O)cc21	–	–	0.00458 to 0.5	> 0.5
COc1ccc2c(c1)C=C(c1ncccc1N1CC(C)(C)C1=O)Cn1c-2c(C2CCCCC2)c2ccc(C(=O)O)cc21	0.00458 to 0.5	0.00458 to 0.5	–	–
COc1ccc2c(c1)C=C(c1ncccc1C(=O)N1CCN(C)CC1)Cn1c-2c(C2CCCCC2)c2ccc(C(=O)O)cc21	0.00458 to 0.5	0.00458 to 0.5	–	–
COc1ccc2c(c1)C=C(c1ncccc1C(=O)N(C)C)Cn1c-2c(C2CCCCC2)c2ccc(C(=O)O)cc21	0.00458 to 0.5	0.00458 to 0.5	–	–
COc1ccc2c(c1)C=C(c1ncccc1C(=O)N1C3CCC1CN(C)C3)Cn1c-2c(C2CCCCC2)c2ccc(C(=O)O)cc21	–	–	0.00458 to 0.5	0.00458 to 0.5
COc1ccc2c(c1)C=C(c1ncccc1S(=O)(=O)N1C3CCC1CN(C)C3)Cn1c-2c(C2CCCCC2)c2ccc(C(=O)NS(=O)(=O)N(C)C)cc21	–	–	0.00458 to 0.5	0.00458 to 0.5
COc1ccc2c(c1)C=C(c1ncccc1C(=O)N1C3CCC1CN(C)C3)Cn1c-2c(C2CCCCC2)c2ccc(C(=O)NS(=O)(=O)N(C)C)cc21	–	–	0.00458 to 0.5	0.00458 to 0.5
COc1ccc2c(c1)C=C(c1cccc(OCCN3CCOCC3)c1)Cn1c-2c(C2CCCCC2)c2ccc(C(=O)NS(=O)(=O)C(C)C)cc21	> 0.5	0.00458 to 0.5	–	–
COc1ccc2c(c1)CC(c1cccc(OCCN(C)C)c1)Cn1c-2c(C2CCCCC2)c2ccc(C(=O)NS(=O)(=O)C(C)C)cc21 (stereo not shown)	0.00458 to 0.5	0.00458 to 0.5	–	–
COc1ccc2c(c1)CC(c1cccc(OCCN3CCOCC3)c1)Cn1c-2c(C2CCCCC2)c2ccc(C(=O)NS(=O)(=O)C(C)C)cc21 (stereo not shown)	0.00458 to 0.5	0.00458 to 0.5	–	–
COc1ccc2c(c1)C=C(c1ccccc1C(F)(F)F)Cn1c-2c(C2CCCCC2)c2ccc(C(=O)NS(=O)(=O)C(C)C)cc21	> 0.5	0.00458 to 0.5	–	–
COc1ccc2c(c1)C=C(c1ccccc1S(=O)(=O)N1CCCC1)Cn1c-2c(C2CCCCC2)c2ccc(C(=O)NS(=O)(=O)C(C)C)cc21	> 0.5	0.00458 to 0.5	–	–
COc1ccc2c(c1)C=C(c1ccccc1OC(F)(F)C(F)(F)F)Cn1c-2c(C2CCCCC2)c2ccc(C(=O)NS(=O)(=O)C(C)C)cc21	> 0.5	0.00458 to 0.5	–	–
COc1ccc2c(c1)C=C(c1c(F)cccc1C(F)(F)F)Cn1c-2c(C2CCCCC2)c2ccc(C(=O)NS(=O)(=O)C(C)C)cc21	0.00458 to 0.5	0.00458 to 0.5	–	–
COc1ccc2c(c1)C=C(c1cccc3c1OCCO3)Cn1c-2c(C2CCCCC2)c2ccc(C(=O)NS(=O)(=O)C(C)C)cc21	> 0.5	0.00458 to 0.5	–	–
COc1ccc2c(c1)C=C(c1cccc3c1OC(F)(F)O3)Cn1c-2c(C2CCCCC2)c2ccc(C(=O)O)cc21	> 0.5	0.00458 to 0.5	–	–
COc1ccc2c(c1)C=C(c1cc([N+](=O)[O-])c3[nH]ccc3c1)Cn1c-2c(C2CCCCC2)c2ccc(C(=O)O)cc21	> 0.5	0.00458 to 0.5	–	–
COc1ccc2c(c1)C=C(c1cnc(OC)c3[nH]ccc13)Cn1c-2c(C2CCCCC2)c2ccc(C(=O)O)cc21	0.00458 to 0.5	0.00458 to 0.5	–	–
COc1ccc2c(c1)C=C(c1ccc3sc(C)nc3c1)Cn1c-2c(C2CCCCC2)c2ccc(C(=O)O)cc21	> 0.5	0.00458 to 0.5	–	–
COc1ccc2c(c1)C=C(c1ccccc1C(=O)N1C3CCC1CN(C)C3)Cn1c-2c(C2CCCCC2)c2ccc(C(=O)OC(C)(C)C)cc21	–	–	> 0.5	> 0.5
COc1ccc2c(c1)C=C(c1ccccc1C(=O)N1C3CCC1CN(C)C3)Cn1c-2c(C2CCCCC2)c2ccc(C(=O)O)cc21	–	–	0.00458 to 0.5	0.00458 to 0.5
COc1ccc2c(c1)C=C(c1ccccc1C(=O)N1C3CCC1CN(C)C3)Cn1c-2c(C2CCCCC2)c2ccc(C(=O)NS(=O)(=O)C(C)C)cc21	–	–	0.00458 to 0.5	0.00458 to 0.5
COc1ccc2c(c1)C=C(c1ccccc1C(=O)N1CCOCC1)Cn1c-2c(C2CCCCC2)c2ccc(C(=O)OC(C)(C)C)cc21	> 0.5	> 0.5	–	–
